Experimental data: patent US10849875B2, “Cancer specific lipid targeted peptidomimetics” (University of Houston System, priority 2015, dated 2020)
Positions of bridges follow the written chain, without caps; N, C: chain ends. Non-standard residues stand in square brackets, D forms with d. Residues, ends and D or L forms follow the SMILES beside them. Chains are numbered I, II in the order given. Gly(N-piperonyl) = O=C(O)CNCc1ccc2c(c1)OCO2; N(4-MeOBn)Gly = COc1ccc(CNCC(=O)O)cc1; Nrpe = C[C@@H](NCC(=O)O)c1ccccc1; Nlys = NCCCCNCC(=O)O

Key:
[1] = system: HCC4017 xenografts; assay: Tumor burden effect on HCC4017 xenografts; type: in vivo, mice; settings: initial data, heterogeneous tumors
Description: The actual tumor burden effects of PPS1D1 on HCC4017 xenografts were studied. The study was planned with 4 groups. […] It took a long time to grow and created a very heterogeneous xenograft population. PPS1D1 treatment was performed, but due to the high heterogeneity of the tumors, most of the mice in every group had to be sacrificed as they reached the maximum allowed limits.

[2] = In vitro cellular activity of PS targeted peptoid derivatives; type: cell-based
Excerpt: Peptoid compounds include but are not limited to PPS1D1 (FIG. 15), PPS1-DE2 (FIG. 16), PPS1-RD1 (FIG. 17), PPS1-2P3H (FIG. 18), PPS1-4P3H (FIG. 19), PPS1-Tri-1 (FIG. 20), PPS1-Tet-1 (FIG. 21), and PPS2D1 (FIG. 22). […] PPS1D1 has a validated in vivo animal tumor burden activity.

[3] = system: HCC4017, H460, H358, H441, H1819, H1993, H2122, MD-MB-231 and PC3 cells; assay: In vitro cancer cell killing (MTS cell viability assays and FACS studies); type: cell-based, human; settings: lung, breast and prostate cancer cells
Excerpt: Various derivatives of PPS1 have been developed that have similar and improved activities. FIGS. 15-22, 36-51.

[4] = MTD studies of PPS1D1; parameters: species or system mice; settings: mouse, in vivo
Description: […] (MTD) studies were performed by injecting PPS1D1 into mice. […] In vivo localization studies were performed with biotinylated versions of PPS1D1 and PC462D1. Animals were injected intravenously with 100 μL of biotinylated PPS1D1 or PC462D1 (500 μg/mL) and sacrificed at 1 and 4 h post injection. Tissue was collected, snap frozen, and sectioned and the presence of the PPS1D1 and PC462D1 determined by streptavidin-Cy3.

[5] = Lipid ELISA-like binding assay
Description: The direct binding of PPS1 to PS was tested. An ELISA-like assay was used. Two main lipids typically found on cell membrane, PS and PC, were immobilized separately on a 96-well plates and biotinylated PPS1 was incubated at an increasing concentration gradient. Presence of bound PPS1 was detected by HRP-streptavidin after appropriate blocking and washing. (FIG. 11A), PC was selected as the control because it is the most abundant neutral phospholipid found in the outer leaflet of the normal cell membranes. […] This indicates […] has specificity to PS over PC.
ELISA binding assay on PS and PC: PS and PC (Avanti Polar Lipids) were dissolved in hexane at 10 μg/ml concentration and added to Immulon 1B “U” bottom microtiter plates (Thermo) 50 μl/well. hexane was allowed to evaporate at room temp (in the hood). Plates were blocked by adding 200 μl 1% BSA in PBS to each well and incubated for 1 hour. Each well was washed with 3× w/200 μl PBS. Serial dilutions (0.5 μM to 0.0078 μM) of biotinylated PPS1 and PPS2 were dissolved in blocking buffer (100 μl/well) and incubated for 1 hr on shaker. Washed 5× w/200 μl PBS. Added 100 μl streptavidin-HRP (1:2000 in blocking buffer) to each well and incubated for 30 min. […] Stopped the reaction with 100 μl 0.18M H2SO4 Read OD at 490 nm.
Since PS is selectively exposed on the surface of HCC4017 cells compared with HBEC30KT, it was examined if PPS1D1 (FIG. 9B and FIG. 72) binds to PS directly. In an ELISA-like assay, PS and PC were coated separately on 96-well plates, biotinylated PPS1D1 (FIG. 65) was introduced in a concentration gradient and the bound compound was detected using standard streptavidin-HRP system.
Lipids (Avanti Polar Lipids) were dissolved in hexane at 10 μg/ml and coated on to Immulon 1B “U” bottom microtiter plates (ThermoFisher, MA). […] Plates were washed with 5× PBS and binding was detected with streptavidin-HRP (1:2000 in blocking buffer) followed by 100 μl OPD (Sigma-Aldrich). The reaction was stopped with 100 μl 0.18M H2SO4 and absorbance was read at 490 nm using the spectrophotometer (Spectramax i3, Molecular Devices, CA).

[6] = system: HBEC30KT cells; assay: Cell staining with Hoechst 33342 and propidium iodide (membrane integrity); type: cell-based, human; settings: 20 μM
Description: (§1) It was evaluated how PPS1D1 affects viability of these PS expressing cancer cell lines. While there are difficulties of narrowing down the exact mechanism of action of a compound targeting cell membrane lipids, whether PPS1D1 has any effect on cell membrane integrity was evaluated. Cells were treated with standard DNA staining dyes Propidium iodide (PI) and Hoechst 33342. While both bind DNA, only Hoechst is cell permeable. Therefore, when treating live cells only Hoechst will stain the nucleus while PI will stain the nucleus only if the cell membrane integrity is compromised. All the lung cancer cell lines and normal HBEC30KT cells were treated with these dyes in the presence of PPS1D1 (at 1 μM and 20 μM) or a control compound PC462D1 at 20 μM and evaluated fluorescence by microscopy without fixation. […] These observations indicate that 20 μM PPS1D1 is selectively cytotoxic to PS-positive lung cancer cells.
(§2) 10,000 cells of HCC4017, H460, HCC95, H1693,H1395 and HBEC30KT were plated on chamber slides (Lab-Tek, Thermo Fisher, MA). On second day, cells were treated with PPS (1 μM and 20 μM), control PC462D1 (20 μM) and 0.005% Benzalkonium chloride (BAC) in RPMI medium with 10% FBS containing 3% BSA (KSFM media with 3% BSA for HBEC30KT). Chamber slides were washed with PBS three times. Cells were then stained with Hoechst 33342 (10 μg/ml) for 30 min in dark. Chamber slides were washed with 3× PBS. Cells were then stained with propidium iodide (1 mg/ml) for 15 mins. Cells were washed with 3× PBS and imaged using Fluorescence Microscope (Olympus BX-53).

[7] = system: HCC4017, H460, HCC95, H1693, H1395 lung cancer cell lines; assay: as above; type: cell-based, human
Description: as §1, §2

Q: Which tumor growth [1] does the source give for `COc1ccc(CN(CC(=O)N(CCCCN)CC(=O)N[C@@H](CCCCN)C(=O)N[C@H](CCCCN)C(=O)N[C@@H](CCSC)C(=O)NCCCC[C@H](NC(=O)[C@H](CCSC)NC(=O)[C@@H](CCCCN)NC(=O)[C@H](CCCCN)NC(=O)CN(CCCCN)C(=O)CN(Cc2ccc(OC)cc2)C(=O)CN(C(=O)CN(Cc2ccc3c(c2)OCO3)C(=O)CN[C@H](C)c2ccccc2)[C@H](C)c2ccccc2)C(N)=O)C(=O)CN(C(=O)CN(Cc2ccc3c(c2)OCO3)C(=O)CN[C@H](C)c2ccccc2)[C@H](C)c2ccccc2)cc1` [PPS1D1] (I: H-[Nrpe][Gly(N-piperonyl)][Nrpe][N(4-MeOBn)Gly][Nlys]K[dK]MK-NH2 / II: H-[Nrpe][Gly(N-piperonyl)][Nrpe][N(4-MeOBn)Gly][Nlys]K[dK]M; amide I:9-II:C; N-terminus assumed) here?
A: capable of reducing the tumor growth

Q: And the “in vitro cellular activity” value [2]?
A: validated in vitro cellular activity

Q: And the “in vitro cancer cell killing activity” value [3]?
A: strong in vitro cancer cell killing activity

Q: And the MTD ([4]; mice bearing subcutaneous HCC4017 xenografts)?
A: 1 mg/kg

Q: And the MTD ([4]; nontumor bearing animals)?
A: 5 mg/kg

Q: And the “binding to PC” value ([5]; PC-coated ELISA plates)?
A: very high specificity over the PC

Q: What about the “binding to PS” value ([5]; PS-coated ELISA plates) of the same compound?
A: strongest affinity

Q: And the Kd ([5]; PS-coated ELISA plates, biotinylated compound, streptavidin-HRP)?
A: ~0.055 µM

Q: What about the “PI staining of normal HBEC30KT cells” value [6] of the same compound?
A: not observed

Q: And the “PI / Hoechst staining of lung cancer cells” value ([7]; 1 μM)?
A: only show staining with Hoechst dye

Q: What about the “PI / Hoechst staining of lung cancer cells” value ([7]; 20 μM) of the same compound?
A: staining of cells with PI
